Experimental data reported in patent US20100227841A1, “Patient populations and treatment methods” (Harbor BioSciencs, Inc., priority 2008, published 2010).

Columns and labels:
[1] = Blood levels after oral immediate release formulations; type: in vivo, human; conditions: for serum levels remained at or above: entire day
Procedure: Blood levels of 17α-ethynylandrost-5-ene-3β,7β,17β-triol were determined in adult patients dosed with a range of dosages as oral immediate release formulations. The formulations were essentially as described in example 3, with capsules containing 1 mg/capsule, 5 mg/capsule, 10 mg/capsule, 25 mg/capsule or 50 mg/capsule. These unit doses were filled into hard gelatin capsules (size #1 for […] doses; size #2 for the 1 and 5 mg doses) and micronized compound (D90˜[…]) was used.
Two capsules containing 1 mg of 17α-ethynylandrost-5-ene-3β,7β,17β-triol were administered twice per day to patients receiving a 4 mg/day total dose. […] Blood levels of the compound were at or above about 0.5 ng/mL for over 2 hours/day. […] In other patients receiving 4 mg/day for 28 days, there was a lower degree of response than patients receiving higher doses and 4 mg/day was considered to be the minimal effective dose.
Analysis of some of the evaluable patients from example 1 gave the following results. […] Drug exposure over 24 hours (AUC0-24) in patients receiving 10 mg/day (5 mg twice per day) ranged from 15.7 ng·hr/mL to 190 ng·hr/mL and from 72 ng·hr/mL to 198 ng·hr/mL in patients receiving 20 mg/day (10 mg twice per day). Drug exposure in patients receiving 40 mg/day (20 mg twice per day) ranged from 60 ng·hr/mL to 209 ng·hr/mL.

female NOD mice = experiment: Spontaneous autoimmune diabetes in non-obese diabetic (NOD) mouse model; type: in vivo; conditions: for Insulitis Score/Islet (H&E) / β-Cell Score/Islet (Insulin): scale of 0 to 3
Description: Treatment of spontaneous autoimmune diabetes in non-obese diabetic (NOD) mouse model. The NOD model is used as an animal model for human type 1 diabetes. The NOD mouse strain spontaneously develops autoimmune (type 1) diabetes by a process that has similarities to human type 1 diabetes mellitus, e.g., immune-mediated selective destruction of the pancreatic islet 13-cells that produce insulin (M. A. Atkinson and N. K. Maclaren, New England J. Medicine, 331:1428-1436 1994). There is a higher incidence of diabetes (i.e., hyperglycemia, glucosuria, and hypoinsulinemia) in female vs. male NOD mice (80-90% vs. 10-20%, respectively). Disease incidence in this animal model is first observed at approximately 12 to 15 weeks of age with maximum incidence usually peaking 5 to 6 weeks later.
Methods. An oral formulation containing 17α-ethynylandrost-5-ene-3β,7β,17β-triol in 30% w/v β-cyclodextrin sulfobutyl ether sodium salt (Captisol®; CyDex, Inc., Overland Park, Kans.) was used. Six-week old female NOD mice (approximately 20-25 grams) were purchased from The Jackson Laboratories (Bar Harbor, Me.) and housed in a vivarium under pathogen-free conditions. The animals were acclimated for at least one week prior to initiation of oral dosing with 17α-ethynylandrost-5-ene-3β,7β,17β-triol. Animals were randomized into 5 per cage upon receipt and cages were subsequently randomized into dosing groups.
Female NOD mice were treated once daily with vehicle, 17α-ethynylandrost-5-ene-3β,7β,17β-triol (20 or 80 mg/kg in 100 μL, p.o.), or dexamethasone (0.25 mg/kg, 100 μL, i.p.) from 15 to 25 weeks of age (i.e., before the first incidence of diabetes; at the University of Catania), from 13 to 19 weeks of age (2 days after the first incidence of diabetes), or from 12 to 26 weeks of age (9 days after the first incidence of diabetes). Blood glucose was monitored using glucometers (ENCORE Glucometer, Bayer Corp., Elkhart, Ind.) at weekly intervals, beginning at 10 weeks of age. Mice with blood glucose levels 200 mg/dL on two consecutive occasions were considered diabetic. The percentage of animals with diabetes over the course of the experiment was monitored.
Histological assessment of insulitis and functional 13-cell content was assessed at the time of disease diagnosis or at the end of the 26-week study (i.e., disease-free mice). Pancreata (after CO2 euthanasia) were immediately isolated and placed in 10% buffered formalin at room temperature overnight, and then embedded in paraffin. After de-paraffinizing, pancreas samples were rehydrated and 5 μm sections were prepared and fixed on glass slides. Some sections were stained with hematoxylin and eosin (H&E) while others were stained with anti-insulin antibody as follows; prepared sections were immersed in Tris-Buffered Saline (TBS: 10 mM Tris buffer, pH 7.4, 0.15 M NaCl) containing 1% of bovine serum albumin (BSA) and 5% normal goat serum for 2 h at room temperature followed by incubation with 2 μg/mL rat anti-insulin IgG2a monoclonal antibody (MAB1417; R&D Systems, Minneapolis, Minn.) in TBS/1% BSA overnight at 4° C. in a humidified chamber. After washing with TBS/0.5 Tween-20, sections were covered with biotinylated anti-rat IgG secondary antibody (BD biosciences, 1:1,000) for 1 h at room temperature, followed by washing with TBS/Tween-20 and incubation with streptavidin-horseradish peroxidase for 30 min. Sections were then incubated with chromogen substrate, DAB (BD Biosciences), for 5 min and counterstained with hematoxylin. The degree of insulitis (leukocyte infiltration per islet; H&E) and functional 13-cell content per islet (insulin production) was scored using a scale of 0 to 3 in which 0=none, 1=few, 2=moderate, 3=high content of inflammatory cells or functional β-cells. Pancreata that were scored were obtained from a randomly-selected portion of mice from each cohort and scores were reported as the mean±SEM for each cohort.

[2] = 2 mg twice per day (4 mg/day), n=2

**Q.** Which results are given for `C#C[C@]1(O)CC[C@H]2[C@@H]3[C@@H](O)C=C4C[C@@H](O)CC[C@]4(C)[C@H]3CC[C@@]21C` [17α-ethynylandrost-5-ene-3β,7β,17β-triol]?
**A.** time with blood levels at or above about 0.5 ng/mL ([1]; 2 mg twice per day): over 2 hours/day; peak blood levels [1, 2]: 1 to 2 ng/mL; time of peak blood levels after dosing [1, 2]: 2 to 3 h; blood levels maintained ([1]; 2 mg twice per day, for over 2 hours/day): ≥ 0.5 ng/mL; peak serum levels ([1]; 10 mg twice per day (20 mg/day on a single day), n=2): 10 to 30 ng/mL; serum levels remained at or above ([1]; 10 mg twice per day): ≥ 3 ng/mL; serum levels remained at or above ([1]; 25 mg twice per day): ≥ 3 ng/mL; peak serum levels ([1]; 50 mg twice per day (100 mg/day), n=2): 80 to 150 ng/mL; serum levels remained at or above ([1]; 50 mg twice per day (100 mg/day)): ≥ 10 ng/mL; induction of cytochromes (liver enzymes) ([1]; 100 mg/day dose level): not observed; fasted Cmax lower compared to patients dosed after a meal ([1]; fasted vs fed status): up to 60%; mean Cmax ([1]; females (n=3), 20 mg/day (10 mg twice per day)): 13.8 ng/mL; Cmax levels in females vs males ([1]; in vivo): sometimes higher; total drug exposure levels, adult females vs adult males ([1]; in vivo): somewhat higher; mean Cmax ([1]; males (n=4), 20 mg/day (10 mg twice per day)): 15.1 ng/mL; mean Cmax ([1]; pre-diabetic hyperglycemic females (n=6), 10 mg per day (5 mg twice per day)): 11.2 ng/mL; mean Cmax ([1]; pre-diabetic hyperglycemic males (n=2), 10 mg per day (5 mg twice per day)): 3.8 ng/mL; mean Cmax ([1]; rheumatoid arthritis patients, females (n=6), 40 mg/day (20 mg twice per day)): 27.4 ng/mL; mean Cmax ([1]; rheumatoid arthritis patients, males (n=2), 40 mg/day (20 mg twice per day)): 43.7 ng/mL; Disease Incidence (female NOD mice; 20 mg/kg p.o. once daily): 0.78 ± 0.15; No. Islets/pancreas (H&E) (female NOD mice; 20 mg/kg p.o. once daily): 2.4 ± 0.9; Insulitis Score/Islet (H&E) (female NOD mice; 20 mg/kg p.o. once daily): 2.5 ± 0.3; β-Cell Score/Islet (Insulin) (female NOD mice; 20 mg/kg p.o. once daily): 1.5 ± 0.4; effect on disease incidence (female NOD mice; 20 mg/kg, differs from 80 mg/kg, p=0.009 Fischer's Exact test): ineffective; Disease Incidence (female NOD mice; 80 mg/kg p.o. once daily): 0.17 ± 0.17; No. Islets/pancreas (H&E) (female NOD mice; 80 mg/kg p.o. once daily): 8.0 ± 3.1; Insulitis Score/Islet (H&E) (female NOD mice; 80 mg/kg p.o. once daily): 0.8 ± 0.4; β-Cell Score/Islet (Insulin) (female NOD mice; 80 mg/kg p.o. once daily): 2.6 ± 0.4; progressive increase in disease incidence (female NOD mice; 80 mg/kg single daily oral doses started 2 days or 9 days after first incidence of diabetes): suppressed; disease incidence relative to vehicle, meta-analysis across all studies (female NOD mice; 80 mg/kg, p=0.007 Fischer's Exact test): significant decrease; mean±SEM body weights (female NOD mice; Week 25, 20 mg/kg): 24.6 ± 0.8 g; mean±SEM body weights (female NOD mice; Week 25, 80 mg/kg): 24.7 ± 0.3 g; first incidence of diabetes (female NOD mice; week 19, once daily treatment from 15 to 25 weeks of age (vehicle 25%)): 8%; mean±SEM body weights (female NOD mice; week 31, end of study): 24.3 ± 0.6 g; maximum disease incidence during treatment (female NOD mice; weeks 23 through 25 (vehicle 66%), p<0.05 Chi-Squared test): 25%
